Where a SMILES comes first, the peptide text is derived from it. Bridges are numbered along the chain shown (N, C = ends).

One assay addresses T1, HTTQ54 (Homo sapiens, UniProt P42858, INS38QQQQQQQQQQQQQQQQQQQQQQQQQQQQQQQQQ).
T1 construct: FLAG; made in house; host or cells: Sf9 insect cells (baculovirus)
Kind of assay: Thermal shift assay (DSF), HTTQ54. Type of assay: binding. The settings on record: SYPRO Orange, 0.25 mg/mL protein, macrocycle up to 10 μM, 2.5% DMSO, n=3. The protocol: (§1) In an Axygen® 384-well PCR microplate (REF# PCR-384-LC480-W-NF, Corning), samples were mixed to yield a final concentration of 0.25 mg/mL Q54 or Q23/HAP40, a 5-pt 2-fold serial dilution of each macrocycle (top concentration of 10 μM, 2.5% DMSO), and 5X SYPRO™ Orange (CAT# S6650, Thermo Fisher Scientific) in buffer (20 mM HEPES pH 7.4, 150 mM NaCl, 1 mM TCEP, 0.005% Tween-20). Differential Scanning Fluorimetry (DSF) was performed using a LightCycler® 480 (Roche LifeSciences) set to a 4 °C/min temperature ramp (20–95 °C) and fluorescence detection at 580 nm. Melting temperatures (Tm) were obtained from the minima of the negative derivative of each curve. The propagated error of the thermal shift (ΔTm) was calculated from the standard deviation of each Tm mean (n=3). To ensure a maximally macrocycle-bound fraction (KD ~10 nM; ~100% bound) at 0.25 mg/mL HTT or HTT-HAP40 (~0.7 μM), the upper limit of macrocycle tested was 10 μM.
(§2) 98 Supplementary Figure. 10. Thermal shift (ΔTm) induced by macrocycle binding. Melting
(§3) 99 temperature of HTTQ54 (left) with HL5 or HL2 minus HTTQ54 with DMSO (46.5 °C), and (right)
(§4) 100 HTTQ23-HAP40 with HD4, HL2, HL5, HHD2, HHD3, or HHL1 minus HTTQ23-HAP40 with DMSO
(§5) 101 (51.0 °C). ΔTm significance was determined using an unpaired t-test with Welch correction,
(§6) 102 comparing to the mean Tm of Q54 or Q23-HAP40 with DMSO; *P < 0.05, **P < 0.01, ***P <
103 0.001. […]

Another assay addresses T2, HTTQ23-HAP40 (Homo sapiens, UniProt P23610+P42858, INS38QQ).
T2 construct: Full-length wildtype HTT with a polyQ tract of 23 glutamines; FLAG; made in house; host or cells: Sf9 insect cells (baculovirus)
In words: Thermal shift assay (DSF), HTTQ23-HAP40. In kind it is binding. The settings on record: SYPRO Orange, 0.25 mg/mL protein, macrocycle up to 10 μM, 2.5% DMSO, n=3. How it is done:
as §1, §2, §3, §4, §5, §6
103 0.001. The summary table reports the ΔTm and exact P value at the highest concentration tested
(1 picture or pasted object on this page, not shown here)

T1 sequence (P42858 with tags, fused parts or gaps with the stated changes): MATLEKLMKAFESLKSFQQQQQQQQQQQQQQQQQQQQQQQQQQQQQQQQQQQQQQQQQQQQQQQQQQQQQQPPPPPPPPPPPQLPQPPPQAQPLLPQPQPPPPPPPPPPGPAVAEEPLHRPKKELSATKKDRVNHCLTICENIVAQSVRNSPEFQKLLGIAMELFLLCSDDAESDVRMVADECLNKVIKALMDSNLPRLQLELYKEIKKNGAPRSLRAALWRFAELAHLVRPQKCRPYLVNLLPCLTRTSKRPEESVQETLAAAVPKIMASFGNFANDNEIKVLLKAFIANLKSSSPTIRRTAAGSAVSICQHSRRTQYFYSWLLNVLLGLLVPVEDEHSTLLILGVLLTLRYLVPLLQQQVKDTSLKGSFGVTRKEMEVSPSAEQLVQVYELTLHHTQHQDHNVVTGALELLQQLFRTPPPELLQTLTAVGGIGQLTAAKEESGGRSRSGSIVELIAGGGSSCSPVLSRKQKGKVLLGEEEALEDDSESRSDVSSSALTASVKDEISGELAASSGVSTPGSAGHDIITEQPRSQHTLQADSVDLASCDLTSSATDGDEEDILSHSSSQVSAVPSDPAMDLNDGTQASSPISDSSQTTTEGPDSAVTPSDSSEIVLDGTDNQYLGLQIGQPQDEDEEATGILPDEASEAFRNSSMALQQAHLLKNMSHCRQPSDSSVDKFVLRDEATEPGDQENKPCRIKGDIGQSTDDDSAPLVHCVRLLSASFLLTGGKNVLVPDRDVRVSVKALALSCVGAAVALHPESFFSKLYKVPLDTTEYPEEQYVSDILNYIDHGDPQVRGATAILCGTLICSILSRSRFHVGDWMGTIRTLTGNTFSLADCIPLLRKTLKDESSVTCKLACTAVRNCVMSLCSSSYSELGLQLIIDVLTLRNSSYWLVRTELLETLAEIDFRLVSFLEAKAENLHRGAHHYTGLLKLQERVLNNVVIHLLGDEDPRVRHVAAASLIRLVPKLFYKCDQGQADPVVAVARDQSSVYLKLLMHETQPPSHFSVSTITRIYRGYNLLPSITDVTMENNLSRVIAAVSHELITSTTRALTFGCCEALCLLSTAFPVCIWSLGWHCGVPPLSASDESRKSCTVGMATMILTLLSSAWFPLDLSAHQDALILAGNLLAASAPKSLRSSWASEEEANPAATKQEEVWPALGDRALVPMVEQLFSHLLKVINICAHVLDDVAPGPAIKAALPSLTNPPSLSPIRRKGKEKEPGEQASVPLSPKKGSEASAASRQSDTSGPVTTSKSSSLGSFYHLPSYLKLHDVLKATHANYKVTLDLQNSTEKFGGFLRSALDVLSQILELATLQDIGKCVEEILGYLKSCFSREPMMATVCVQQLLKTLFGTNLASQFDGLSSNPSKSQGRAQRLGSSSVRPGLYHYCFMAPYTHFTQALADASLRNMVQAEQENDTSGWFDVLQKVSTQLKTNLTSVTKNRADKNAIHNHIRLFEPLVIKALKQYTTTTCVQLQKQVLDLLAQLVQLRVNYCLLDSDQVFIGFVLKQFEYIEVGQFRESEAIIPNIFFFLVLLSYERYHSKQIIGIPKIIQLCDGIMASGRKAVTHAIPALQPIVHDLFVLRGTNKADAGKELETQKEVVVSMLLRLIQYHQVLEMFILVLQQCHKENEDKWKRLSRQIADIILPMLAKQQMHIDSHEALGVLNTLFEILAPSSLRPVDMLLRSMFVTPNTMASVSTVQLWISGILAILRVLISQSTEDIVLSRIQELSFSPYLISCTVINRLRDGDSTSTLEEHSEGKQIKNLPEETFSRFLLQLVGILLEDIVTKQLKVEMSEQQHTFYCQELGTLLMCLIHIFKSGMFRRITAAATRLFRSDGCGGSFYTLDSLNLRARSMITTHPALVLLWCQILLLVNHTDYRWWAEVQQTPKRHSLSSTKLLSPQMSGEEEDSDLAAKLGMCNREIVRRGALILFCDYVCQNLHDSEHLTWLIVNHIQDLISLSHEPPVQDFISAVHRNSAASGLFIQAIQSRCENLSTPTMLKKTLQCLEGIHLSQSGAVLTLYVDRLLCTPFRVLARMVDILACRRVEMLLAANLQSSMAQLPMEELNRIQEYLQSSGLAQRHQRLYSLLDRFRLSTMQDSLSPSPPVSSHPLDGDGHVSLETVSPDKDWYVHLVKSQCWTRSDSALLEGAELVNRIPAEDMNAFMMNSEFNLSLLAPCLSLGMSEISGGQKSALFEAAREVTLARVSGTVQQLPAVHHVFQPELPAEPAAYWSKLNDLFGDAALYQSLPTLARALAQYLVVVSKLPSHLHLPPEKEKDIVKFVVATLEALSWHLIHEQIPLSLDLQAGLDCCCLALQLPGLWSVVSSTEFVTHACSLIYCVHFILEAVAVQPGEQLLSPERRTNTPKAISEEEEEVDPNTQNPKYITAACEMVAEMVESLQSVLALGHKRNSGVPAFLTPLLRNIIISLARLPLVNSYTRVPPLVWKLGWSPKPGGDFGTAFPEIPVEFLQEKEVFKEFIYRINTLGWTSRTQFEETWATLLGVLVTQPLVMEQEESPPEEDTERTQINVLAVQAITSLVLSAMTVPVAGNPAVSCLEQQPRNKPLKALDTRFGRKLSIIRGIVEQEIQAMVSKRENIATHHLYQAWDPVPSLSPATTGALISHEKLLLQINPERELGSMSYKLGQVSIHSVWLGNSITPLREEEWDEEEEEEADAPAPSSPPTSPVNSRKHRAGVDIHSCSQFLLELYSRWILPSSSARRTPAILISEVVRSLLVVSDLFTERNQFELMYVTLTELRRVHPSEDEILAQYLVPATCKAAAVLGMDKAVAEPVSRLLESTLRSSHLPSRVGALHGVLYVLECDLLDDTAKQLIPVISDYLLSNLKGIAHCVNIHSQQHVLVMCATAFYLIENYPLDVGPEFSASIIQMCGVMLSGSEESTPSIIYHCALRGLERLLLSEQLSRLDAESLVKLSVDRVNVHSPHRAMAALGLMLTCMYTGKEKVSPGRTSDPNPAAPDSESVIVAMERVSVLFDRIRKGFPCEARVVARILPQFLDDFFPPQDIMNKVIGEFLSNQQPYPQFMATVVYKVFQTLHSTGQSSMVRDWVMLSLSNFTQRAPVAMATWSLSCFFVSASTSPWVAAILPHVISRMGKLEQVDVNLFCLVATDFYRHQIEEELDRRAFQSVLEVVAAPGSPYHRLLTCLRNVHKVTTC

In the case of `CC(C)C[C@@H]1NC(=O)[C@H](Cc2ccc(O)cc2)NC(=O)[C@H](CCCNC(=N)N)NC(=O)[C@H](C)NC(=O)[C@H]([C@@H](C)O)NC(=O)[C@H](Cc2ccc(O)cc2)NC(=O)CSC[C@@H](C(N)=O)NC(=O)[C@H](CCCCN)NC(=O)[C@H](Cc2ccc(O)cc2)NC(=O)[C@H](Cc2c[nH]cn2)NC(=O)[C@H](CC(C)C)NC(=O)[C@H]([C@@H](C)O)NC(=O)CNC(=O)[C@H](CC(C)C)NC(=O)[C@H]([C@@H](C)O)NC1=O` [HL2] ({CH2CO}-YTARYLTLGTLHYKC-NH2; thioether N-15; C-terminus assumed), the “Thermal shift (ΔTm) of HTTQ54 induced by macrocycle” value on HTTQ54 is on record as “No significant thermal effects”. Also, the “Thermal shift (ΔTm) of HTTQ23-HAP40 induced by macrocycle” value on HTTQ23-HAP40 was “No significant thermal effects”.

The values are drawn from doi:10.1101/2025.08.06.668955, “High-Affinity, Structure-Validated and Selective Macrocyclic Peptide Tools for Chemical Biology Studies of Huntingtin” (bioRxiv, 2025).
